Tests used:
PR8 = format: cell-based, PR8 influenza A virus
[1] = test system: PR8-infected RAW264.7 cells; format: cell-based; settings: RAW264.7 cells stably overexpressing EPRS vs empty vector

EPRS: glutamyl-prolyl-tRNA synthetase protein, 1512 aa, SEQ ID NO: 63; expressed from plasmid or purified
viral replication following infection with PR8 (PR8): significantly less viral replication | IFN-β production following infection with PR8 [1]: more production of IFN-β and IL-6 | IL-6 production following infection with PR8 [1]: more production of IFN-β and IL-6
